Source: paper PMC6233196 (Nature Communications, 2018)
Entries after “also recorded” stand apart in the source; their conditions may differ.

Experiments:
[1] = system: GluN1 ABD; design: method as in PMID 16641235; conditions: cited from earlier work; for Ki: isolated domains
[2] = biological target: T1, GluN1/GluN3A receptors (Rattus norvegicus, UniProt P35439+Q9R1M7); test: Whole-cell patch-clamp of glycine currents in HEK293 cells expressing wild-type GluN1/GluN3A; conditions: for Peak and steady-state current potentiation compared with CGP-78608: MDL-29951 200 nM, 7-CKA 10 µM, L-689560 1 µM pre-incubated; for Effect of reducing treatment on glycine-evoked responses: 20 min, glycine 100 µM
Description: HEK293 cells were used for heterologous expression of recombinant GluN1/GluN3 receptors studied using whole-cell patch-clamp. […] Recordings were performed 24–48 h following cell transfection. The extracellular solution contained (in mM): 140 NaCl, 2.8 KCl, 1 CaCl2, 10 HEPES and 20 Sucrose (290–300 mOsm), pH adjusted to 7.3 using NaOH. […] Drugs and agonists were applied using a multi-barrel solution exchanger (RSC 200; Bio-logic). Recordings were performed at −60 mV and at room temperature. […] EC50, a and nH were set as free parameters.

[3] = biological target: T2, GluN1-F484A/GluN3A receptors (Rattus norvegicus, UniProt P35439+Q9R1M7, F484A); test: Whole-cell patch-clamp in HEK293 cells, GluN1-F484A mutant; assay type: cell-based; conditions: CGP-78608 500 nM
T2 construct: while we record from intact (i.e. full length) membrane-imbedded receptors; expressed in transfected cells; host or cells: HEK293 cells
Description: (§1) Cells were transfected using polyethylenimine with GluN1, GluN3A and GFP plasmids at a 1:3:1 ratio (0.3, 0.9 and 0.3 ng/µl respectively). Recordings were performed 24–48 h following cell transfection. […] EC50, a and nH were set as free parameters.

[4] = system: CA1 pyramidal cells of GluN3A-KO mice; test: Glycine puffs onto voltage-clamped CA1 pyramidal cells, hippocampal slices of GluN3A-KO mice; assay type: cell-based, mouse; conditions: glycine 10 mM puff
Description: (§2) Ex-vivo electrophysiological experiments were performed on coronal slices from the brains of juvenile wild-type (WT) and GluN3A-KO mice originating from the same litters (8–12 days old). Slices were prepared as described previously. Briefly, mice were anesthetized with isofluorane before decapitation. After isolation, the portion of the brain containing the hippocampus was placed in bicarbonate-buffered saline (BBS) at 2–5 °C for a few minutes. Slices (300 μm) were then cut using a 7000 smz-2 vibratome (Campden). The slicing procedure was performed in an ice-cold solution containing (in mM): 130 K^+- gluconate, 15 KCl, 0.05 EGTA, 20 Hepes, 25 glucose, 1 CaCl2, and 6 MgCl2 supplemented with DL-APV (50 µM).
(§3) CA1 neurons were recorded from both the ventral and the dorsal hippocampus. Cells were visualized with a combination of Dodt contrast, and an on-line video contrast enhancement. CA1 cells could be easily identified in the red light with which slices were visualized using a CoolSnap HQ2 CCD camera (Photometrics) run by MetaMorph (Universal Imaging). Whole-cell recordings were performed with an EPC-10 double amplifier (Heka Elektronik) run by PatchMaster (Heka). […] Series resistance was partially compensated (max 65%), whereas liquid junction potentials were not corrected. Recordings were performed at a holding potential of −60 mV.

[5] = biological target: GluN1-C744S-C798S/GluN3A-C859S-C913S receptors (Rattus norvegicus, UniProt P35439+Q9R1M7, C744S/C798S/C859S/C913S); conditions: CNQX 50 µM
Description: as §1

[6] = biological target: T3, GluN1/GluN3A receptors in CA1 pyramidal cells (Mus musculus, UniProt A2AIR5+P35438); test: Glycine puffs onto voltage-clamped CA1 pyramidal cells, hippocampal slices of wild-type mice; assay type: cell-based
T3 construct: from tissue; host or cells: acute hippocampal slices (CA1 pyramidal cells) of P8-P12 wild-type mice
Description: as §2, §3

[7] = system: HEK cells; test: Tolerability of reducing agent when patching HEK cells
Description: In the current work, TCEP was used on HEK cells and DTE on Xenopus oocytes.
When patching HEK cells, however, we observed that
Accordingly, we switched to TCEP,
DTE and TCEP, while both powerful to break disulfide
bonds, differ in their membrane permeability (DTE can cross membranes but not TCEP).

[8] = biological target: GluN1 (native receptors); conditions: read-out: Ki for GluN1; cited from earlier work
[9] = biological target: T1, GluN1/GluN3A receptors; test: Two-electrode voltage-clamp in Xenopus oocytes expressing wild-type GluN1/GluN3A; assay type: cell-based; design: while we record from intact (i.e. full length) membrane-imbedded receptors; expressed in transfected cells; host or cells: HEK293 cells; conditions: TCEP 5 mM, 20 min; glycine 100 µM
Description: Oocytes from Xenopus lævis (Xenopus Express, Rennes, France) were used for heterologous expression of recombinant GluN1/GluN3A receptors studied using two-electrode voltage-clamp (TEVC). TEVC recordings were performed 3–4 days following injection. […] Each oocyte was co-injected with a mixture of GluN1 and GluN3A cDNA at a concentration of 50 ng/µl and at a 1:1 ratio. The standard external solution contained (in mM): 100 NaCl, 2.5 KCl, 0.3 BaCl2, 5 HEPES, 0.01 DTPA (diethylenetriamine-pentaacetic acid), pH 7.3. […]
EC50, a and nH were set as free parameters.

[10] = biological target: GluN3A ABD; conditions: read-out: Glycine affinity; isolated GluN3A ABD; cited from earlier work

T1 sequence (Q9R1M7 24-1135, other chains not shown): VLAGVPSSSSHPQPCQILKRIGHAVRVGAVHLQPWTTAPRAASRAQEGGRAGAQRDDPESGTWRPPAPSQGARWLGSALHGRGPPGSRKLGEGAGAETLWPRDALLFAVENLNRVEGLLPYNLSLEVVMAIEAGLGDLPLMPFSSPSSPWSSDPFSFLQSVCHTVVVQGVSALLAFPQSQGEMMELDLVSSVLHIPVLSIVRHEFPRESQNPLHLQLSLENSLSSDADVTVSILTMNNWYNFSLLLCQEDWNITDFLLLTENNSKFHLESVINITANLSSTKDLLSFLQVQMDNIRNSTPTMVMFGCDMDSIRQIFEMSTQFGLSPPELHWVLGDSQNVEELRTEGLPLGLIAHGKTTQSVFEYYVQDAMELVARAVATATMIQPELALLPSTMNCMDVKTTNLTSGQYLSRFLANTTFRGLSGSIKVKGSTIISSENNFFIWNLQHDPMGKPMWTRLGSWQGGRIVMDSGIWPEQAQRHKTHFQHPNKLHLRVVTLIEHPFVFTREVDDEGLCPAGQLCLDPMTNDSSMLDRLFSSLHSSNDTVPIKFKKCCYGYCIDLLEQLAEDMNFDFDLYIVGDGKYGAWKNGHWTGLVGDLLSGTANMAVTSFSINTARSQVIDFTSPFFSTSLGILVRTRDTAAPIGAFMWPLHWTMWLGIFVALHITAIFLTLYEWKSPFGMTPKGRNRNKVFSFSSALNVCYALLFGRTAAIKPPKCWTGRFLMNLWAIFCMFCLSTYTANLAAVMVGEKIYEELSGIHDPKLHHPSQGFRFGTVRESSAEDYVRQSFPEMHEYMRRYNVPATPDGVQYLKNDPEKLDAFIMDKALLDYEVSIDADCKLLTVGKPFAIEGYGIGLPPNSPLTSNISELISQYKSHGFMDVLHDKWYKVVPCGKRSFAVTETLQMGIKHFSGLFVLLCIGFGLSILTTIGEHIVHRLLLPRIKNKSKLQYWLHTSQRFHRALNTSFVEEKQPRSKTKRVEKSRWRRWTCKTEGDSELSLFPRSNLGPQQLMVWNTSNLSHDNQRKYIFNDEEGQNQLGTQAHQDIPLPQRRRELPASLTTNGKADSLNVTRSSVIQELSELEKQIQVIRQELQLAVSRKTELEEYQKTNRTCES
Chain of GluN1-C744S-C798S/GluN3A-C859S-C913S receptors (Q9R1M7 24-1135 C859S/C913S, other chains not shown): as the sequence (Q9R1M7 24-1135, other chains not shown) above, with C836S, C890S counted along it
T2 sequence (Q9R1M7 24-1135, other chains not shown): as the sequence (Q9R1M7 24-1135, other chains not shown) above
T3 sequence (A2AIR5 27-1135, other chains not shown): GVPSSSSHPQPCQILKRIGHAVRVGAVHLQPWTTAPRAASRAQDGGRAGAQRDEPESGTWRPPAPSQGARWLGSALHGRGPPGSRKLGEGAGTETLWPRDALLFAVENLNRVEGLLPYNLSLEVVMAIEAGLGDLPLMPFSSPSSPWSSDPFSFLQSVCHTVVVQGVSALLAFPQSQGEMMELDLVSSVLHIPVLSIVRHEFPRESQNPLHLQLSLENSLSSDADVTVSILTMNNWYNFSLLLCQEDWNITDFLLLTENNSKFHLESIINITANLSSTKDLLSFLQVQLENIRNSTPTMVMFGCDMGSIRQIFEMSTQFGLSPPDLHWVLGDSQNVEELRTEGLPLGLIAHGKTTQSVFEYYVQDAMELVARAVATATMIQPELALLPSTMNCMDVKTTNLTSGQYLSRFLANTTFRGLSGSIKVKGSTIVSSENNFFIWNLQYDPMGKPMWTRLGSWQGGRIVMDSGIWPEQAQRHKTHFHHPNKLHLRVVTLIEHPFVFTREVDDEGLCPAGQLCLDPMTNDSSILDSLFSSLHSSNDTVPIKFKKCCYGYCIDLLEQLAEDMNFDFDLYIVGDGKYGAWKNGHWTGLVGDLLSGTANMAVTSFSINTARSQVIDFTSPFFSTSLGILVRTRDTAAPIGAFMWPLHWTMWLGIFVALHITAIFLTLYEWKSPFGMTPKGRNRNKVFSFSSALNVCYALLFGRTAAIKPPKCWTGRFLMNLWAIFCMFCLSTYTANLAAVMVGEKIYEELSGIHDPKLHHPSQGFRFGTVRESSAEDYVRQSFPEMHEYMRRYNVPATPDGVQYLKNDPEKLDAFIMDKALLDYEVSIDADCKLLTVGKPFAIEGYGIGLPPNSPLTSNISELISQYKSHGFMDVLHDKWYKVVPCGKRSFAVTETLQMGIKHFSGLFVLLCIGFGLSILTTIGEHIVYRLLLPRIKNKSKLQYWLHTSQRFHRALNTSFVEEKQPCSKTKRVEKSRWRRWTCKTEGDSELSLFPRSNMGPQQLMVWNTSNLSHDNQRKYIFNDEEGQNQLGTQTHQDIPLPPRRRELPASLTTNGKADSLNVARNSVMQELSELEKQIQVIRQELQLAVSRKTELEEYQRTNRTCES

**Q.** With `O=C(Nc1ccccc1)N[C@H]1C[C@H](C(=O)O)Nc2cc(Cl)cc(Cl)c21` (relative stereo) [L-689560, trans-2-Carboxy-5,7-dichloro-4-phenylaminocarbonylamino-1,2,3,4-tetrahydroquinoline] as the compound, how does the “Selectivity for GluN1 vs GluN3 ABD” value ([1]; binding studies on isolated agonist-binding domains) read?
**A.** Its value is “even better than CGP-78608”.

**Q.** And the Ki [1]?
**A.** Its Ki is 29.3 nM.

**Q.** And the “Peak and steady-state current potentiation compared with CGP-78608” value ([2]; glycine 1 mM)?
**A.** The value was “orders of magnitude lower”.

**Q.** For `O=C(O)c1cc(O)c2ccc(Cl)cc2n1` [7-CKA, 7-Chlorokynureic acid], which Ki [1] is on record?
**A.** The Ki was 2600 nM.

**Q.** And the “Peak and steady-state current potentiation compared with CGP-78608” value ([2]; glycine 1 mM)?
**A.** The value was “orders of magnitude lower”.

**Q.** With `C[C@@H](NCc1cc(Br)cc2[nH]c(=O)c(=O)[nH]c12)P(=O)(O)O.Cl` [CGP-78608, [(1 S)-1-[[(7-Bromo-1,2,3,4-tetrahydro-2,3-dioxo-5-quinoxalinyl)methyl]amino]ethyl]phosphonic acid hydrochloride] as the compound, how does the “Potentiating effect on GluN1-F484A mutant” value [3] read?
**A.** The value was “insensitive; also recorded: almost completely abolished”.

**Q.** What about the “Glycine-induced inward current amplitude” value ([4]; bath CGP-78608 1 µM) of the same compound?
**A.** Its value is 5.0 ± 0.6 pA.

**Q.** What about the Ki [1] of the same compound?
**A.** The Ki was 6.4 nM.

**Q.** For `N#Cc1cc2[nH]c(=O)c(=O)[nH]c2cc1[N+](=O)[O-]` [CNQX, 6-Cyano-7-nitroquinoxaline-2,3-dione], which “Effect on tail currents following glycine removal” value ([5]; glycine 100 µM) is on record?
**A.** The value was “inhibited the large tail currents”.

**Q.** What about the “Displacement of holding current” value ([5]; no added glycine) of the same compound?
**A.** The value was 22.9 ± 8.3 pA.

**Q.** What about the “Outward displacement of holding current” value ([2]; CNQX 50 µM, no added glycine) of the same compound?
**A.** The value was 0.6 ± 0.06 pA.

**Q.** Which “Agonist efficacy relative to glycine” value ([2]; D-serine up to 500 µM vs glycine 100 µM, CGP-78608 500 nM) does the source give for `N[C@H](CO)C(=O)O` [D-serine] here?
**A.** Its value is “lower efficacy than glycine”.

**Q.** For `O=C(O)c1cc(=O)c2c(Cl)cc(Cl)cc2[nH]1` [DCKA, 5-7-Dichlorokynurenic acid], which Glycine-induced current amplitude ([6]; bath DCKA 500 µM in presence of CGP-78608, WT) is on record?
**A.** The Glycine-induced current amplitude was 10.2 ± 2.7 pA.

**Q.** Which “Tolerability by HEK cells” value [7] does the source give for `O[C@H](CS)[C@@H](O)CS` [DTE, dithioerythritol] here?
**A.** The value was “could induce cell toxicity”.

**Q.** For `N[C@@H](CCC(=O)N[C@@H](CS)C(=O)NCC(=O)O)C(=O)O` [GSH, reduced glutathione], which “Effect of reducing treatment on glycine-evoked responses” value ([2]; GSH 50 mM) is on record?
**A.** Its value is “completely modified the current phenotype”.

**Q.** For `O=C(O)CCc1c(C(=O)O)[nH]c2cc(Cl)cc(Cl)c12` [MDL-29951, 2-carboxy-4,6-dichloro-1H-indole-3-propanoic acid], which Ki [8] is on record?
**A.** Its Ki is 140 nM.

**Q.** And the “Potentiating factors at higher concentration” value ([2]; MDL-29951 2 µM, glycine 1 mM)?
**A.** The value was “smaller than those observed at 200 nM”.

**Q.** What about the “Peak and steady-state current potentiation compared with CGP-78608” value ([2]; glycine 1 mM) of the same compound?
**A.** The value was “orders of magnitude lower”.

**Q.** For `O=C(O)CCP(CCC(=O)O)CCC(=O)O` [TCEP, Tris(2-carboxyethyl)phosphine], which “Effect of reducing treatment on glycine-evoked responses” value ([2]; TCEP 5 mM) is on record?
**A.** The value was “drastic effects”.

**Q.** And the “Effect of reducing treatment on glycine-evoked currents” value [9]?
**A.** The value was “currents radically changed”.

**Q.** What does the source list for `NCC(=O)O` [glycine, Glycine]?
**A.** Glycine-induced inward current amplitude ([6]; glycine 10 mM puff, control conditions, WT P8-P12): 9.3 ± 1.4 pA; Glycine-induced inward current amplitude ([4]; control conditions): 6.0 ± 0.8 pA; Kd [10]: 40.4 nM
